Measured values from the NIST ThermoML archive (doi:10.1021/je900056u).

Legend:
[1] = 101 kPa, Liquid; for speed of sound: Linear variable-path acoustic interferometer; for mass density: Pycnometric method
[2] = xn = mol fraction of the nth substance listed; conditions: 101 kPa, Liquid; for speed of sound: Linear variable-path acoustic interferometer; for mass density: Pycnometric method

CC(=O)CC(C)C [4-methylpentan-2-one]
[1]
Conditions	mass density [kg/m3]	speed of sound [m/s]
303.15 K	791.7	1175
308.15 K	787.7	1156
313.15 K	782.6	1138

CCC(C)=O [butanone]
[1]
Conditions	mass density [kg/m3]	speed of sound [m/s]
303.15 K	794.6	1178
308.15 K	790.4	1158
313.15 K	783.1	1136

O=S1(=O)CCCC1 [sulfolane] + CCCC(C)=O
[2], x1 = 1
Conditions	mass density [kg/m3]	speed of sound [m/s]
303.15 K	1261.8	1588
308.15 K	1257	1576
313.15 K	1251.6	1558

O=S1(=O)CCCC1 [sulfolane] + CC(=O)CC(C)C
[2]
Conditions	mass density, 303.15 K [kg/m3]	mass density, 308.15 K [kg/m3]	mass density, 313.15 K [kg/m3]	speed of sound, 303.15 K [m/s]	speed of sound, 308.15 K [m/s]	speed of sound, 313.15 K [m/s]
x1 = 0.0287	803.4	799.3	793.9	1185	1166	1147
x1 = 0.1852	866.6	862.5	856.8	1233	1215	1198
x1 = 0.3272	927.3	923.3	917.6	1281	1263	1247
x1 = 0.4634	989.2	985.1	979.7	1335	1316	1300
x1 = 0.5671	1038.9	1034.6	1029.3	1381	1361	1345
x1 = 0.6671	1088.8	1083.9	1078.5	1426	1407	1391
x1 = 0.7777	1145.1	1140.7	1134.1	1479	1463	1447
x1 = 0.8809	1198.5	1195.1	1187.8	1530	1513	1496
x1 = 0.9829	1252.3	1249.2	1242.3	1578	1564	1550
x1 = 1	1261.8	1257	1251.6	1588	1576	1558

CCC(=O)CC [pentan-3-one]
[1]
Conditions	mass density [kg/m3]	speed of sound [m/s]
303.15 K	804.5	1197
308.15 K	799.6	1179
313.15 K	794.3	1160

O=S1(=O)CCCC1 [sulfolane] + CCC(=O)CC
[2], x1 = 1
Conditions	mass density [kg/m3]	speed of sound [m/s]
303.15 K	1261.8	1588
308.15 K	1257	1576
313.15 K	1251.6	1558

O=S1(=O)CCCC1 [sulfolane]
[1]
Conditions	mass density [kg/m3]	speed of sound [m/s]
303.15 K	1261.8	1588
308.15 K	1257	1576
313.15 K	1251.6	1558

CCCC(C)=O [pentan-2-one] + O=S1(=O)CCCC1
[2]
Conditions	mass density, 303.15 K [kg/m3]	mass density, 308.15 K [kg/m3]	mass density, 313.15 K [kg/m3]	speed of sound, 303.15 K [m/s]	speed of sound, 308.15 K [m/s]	speed of sound, 313.15 K [m/s]
x2 = 0	796.6	792.7	785.5	1192	1176	1151
x2 = 0.0261	808.2	804.2	797.8	1203	1183	1161
x2 = 0.162	869.2	864.6	858.8	1246	1225	1203
x2 = 0.2945	929.2	924.8	919.1	1290	1271	1251
x2 = 0.445	998.5	994.6	989.1	1352	1340	1318
x2 = 0.5296	1038.2	1034.5	1029.1	1384	1373	1353
x2 = 0.6319	1086.6	1082.8	1078	1429	1418	1401
x2 = 0.7498	1143.2	1139.2	1134.7	1484	1469	1450
x2 = 0.8677	1200.2	1195.8	1191.6	1536	1520	1503
x2 = 0.9799	1253.2	1248.5	1243.6	1580	1562	1549

CCCC(C)=O [pentan-2-one]
[1]
Conditions	mass density [kg/m3]	speed of sound [m/s]
303.15 K	796.6	1192
308.15 K	792.7	1176
313.15 K	785.5	1151

O=S1(=O)CCCC1 [sulfolane] + CCC(C)=O
[2]
Conditions	mass density, 303.15 K [kg/m3]	mass density, 308.15 K [kg/m3]	mass density, 313.15 K [kg/m3]	speed of sound, 303.15 K [m/s]	speed of sound, 308.15 K [m/s]	speed of sound, 313.15 K [m/s]
x1 = 0.0293	810.6	806.2	799.2	1191	1170	1149
x1 = 0.1391	869.7	865.6	858.7	1234	1215	1195
x1 = 0.2575	931.6	927.5	920.9	1288	1266	1247
x1 = 0.3803	993.5	989.6	983.5	1341	1319	1300
x1 = 0.4834	1043.1	1039.9	1034.4	1386	1366	1346
x1 = 0.5854	1089.7	1086.6	1081.8	1431	1413	1395
x1 = 0.7119	1145.2	1142	1137.2	1481	1465	1450
x1 = 0.8428	1200.5	1196.8	1191.8	1533	1517	1502
x1 = 0.9756	1252.7	1249	1243.7	1581	1568	1552
x1 = 1	1261.8	1257	1251.6	1588	1576	1558

CC(=O)CC(C)C [4-methylpentan-2-one] + O=S1(=O)CCCC1
[2], x2 = 0
Conditions	mass density [kg/m3]	speed of sound [m/s]
303.15 K	791.7	1175
308.15 K	787.7	1156
313.15 K	782.6	1138

CCC(C)=O [butanone] + O=S1(=O)CCCC1
[2], x2 = 0
Conditions	mass density [kg/m3]	speed of sound [m/s]
303.15 K	794.6	1178
308.15 K	790.4	1158
313.15 K	783.1	1136

CCC(=O)CC [pentan-3-one] + O=S1(=O)CCCC1
[2]
Conditions	mass density, 303.15 K [kg/m3]	mass density, 308.15 K [kg/m3]	mass density, 313.15 K [kg/m3]	speed of sound, 303.15 K [m/s]	speed of sound, 308.15 K [m/s]	speed of sound, 313.15 K [m/s]
x2 = 0	804.5	799.6	794.3	1197	1179	1160
x2 = 0.0252	815.9	811.1	805.8	1208	1191	1170
x2 = 0.1627	878.1	873.1	867.6	1257	1240	1218
x2 = 0.2922	937.4	931.9	926.6	1300	1283	1263
x2 = 0.4201	996.2	991.1	985.6	1345	1331	1315
x2 = 0.5234	1044.1	1039.1	1033.7	1388	1376	1361
x2 = 0.6292	1093.5	1088.4	1083.1	1435	1421	1406
x2 = 0.7487	1149.4	1144.2	1139.3	1490	1473	1460
x2 = 0.8644	1202.8	1198.1	1193.2	1536	1520	1506
x2 = 0.9804	1253.5	1250	1244.6	1579	1566	1550
